Measurements: patent publication US7601686B2, “Hepatitis C virus inhibitors” (Bristol-Myers Squibb Company, priority 2005, dated 2009)
Read-outs that look alike come from different tables or passages of the source.

Experiments:
[1] = target: T1, HCV NS3/4A protease complex, BMS strain (UniProt P27958, species not given/STRAIN_BMS); experiment: FRET peptide assay to monitor HCV NS3/4A proteolytic activity (BMS strain); type: biochemical, Hepatitis C virus (genotype 1a)
T1 construct: DNA encoding the recombinant HCV NS3/4A protease complex (amino acids 1027 to 1711) for these strains [H77 and J4L6S]; fused on or other part: For the H77 and J4L6S constructs, a three-lysine solubilising tail at the NS4A C-terminus and a Ni-NTA-purifiable tag from pET21b
T1 sequence (P27958 1027-1657, stated change not applied, one chain of several): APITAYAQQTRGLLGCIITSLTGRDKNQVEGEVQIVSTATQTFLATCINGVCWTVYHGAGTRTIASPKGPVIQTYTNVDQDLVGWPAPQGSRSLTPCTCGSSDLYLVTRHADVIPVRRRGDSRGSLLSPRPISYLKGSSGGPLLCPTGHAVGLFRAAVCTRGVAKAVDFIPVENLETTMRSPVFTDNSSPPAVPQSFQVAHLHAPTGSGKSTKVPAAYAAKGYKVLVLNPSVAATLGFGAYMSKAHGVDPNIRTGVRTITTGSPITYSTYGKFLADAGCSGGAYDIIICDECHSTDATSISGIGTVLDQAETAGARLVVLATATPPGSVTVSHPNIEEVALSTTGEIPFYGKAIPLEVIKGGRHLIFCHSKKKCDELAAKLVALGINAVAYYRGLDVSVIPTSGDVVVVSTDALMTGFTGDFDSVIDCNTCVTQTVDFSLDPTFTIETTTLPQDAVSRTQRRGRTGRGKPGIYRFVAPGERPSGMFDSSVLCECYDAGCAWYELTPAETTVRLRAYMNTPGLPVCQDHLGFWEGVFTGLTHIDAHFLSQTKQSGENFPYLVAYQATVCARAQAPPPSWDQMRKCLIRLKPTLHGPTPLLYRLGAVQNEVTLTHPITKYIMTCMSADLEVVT
Description: Generation of Recombinant HCV NS3/4A Protease Complex
HCV NS3 protease complexes, derived from the BMS strain, H77 strain or J4L6S strain, were generated, as described below. These purified recombinant proteins were generated for use in a homogeneous assay (see below) to provide an indication of how effective compounds of the present disclosure would be in inhibiting HCV NS3 proteolytic activity.
Serum from an HCV-infected patient was obtained from Dr. T. Wright, San Francisco Hospital. An engineered full-length cDNA (compliment deoxyribonucleic acid) template of the HCV genome (BMS strain) was constructed from DNA fragments obtained by reverse transcription-PCR (RT-PCR) of serum RNA (ribonucleic acid) and using primers selected on the basis of homology between other genotype 1a strains. From the determination of the entire genome sequence, a genotype 1a was assigned to the HCV isolate according to the classification of Simmonds et al. (See P Simmonds, K A Rose, S Graham, S W Chan, F McOmish, B C Dow, E A Follett, P L Yap and H Marsden, J. Clin. Microbiol., 31(6), 1493-1503 (1993)). […] The infectious clones, H77 (1a genotype) and J4L6S (1b genotype) were obtained from R. Purcell (NIH) and the sequences are published in Genbank (AAB67036, see Yanagi, M., Purcell, R. H., Emerson, S. U. and Bukh, J. Proc. Natl. Acad. Sci. U.S.A. 94(16), 8738-8743 (1997); AF054247, see Yanagi, M., St Claire, M., Shapiro, M., Emerson, S. U., Purcell, R. H. and Bukh, J, Virology 244 (1), 161-172. (1998)).
The H77 and J4L6S strains were used for production of recombinant NS3/4A protease complexes. DNA encoding the recombinant HCV NS3/4A protease complex (amino acids 1027 to 1711) for these strains were manipulated as described by P. Gallinari et al. (see Gallinari P, Paolini C, Brennan D, Nardi C, Steinkuhler C, De Francesco R. Biochemistry. 38(17):5620-32, (1999)). Briefly, a three-lysine solubilizing tail was added at the 3′-end of the NS4A coding region. The cysteine in the P1 position of the NS4A-NS4B cleavage site (amino acid 1711) was changed to a glycine to avoid the proteolytic cleavage of the lysine tag. Furthermore, a cysteine to serine mutation was introduced by PCR at amino acid position 1454 to prevent the autolytic cleavage in the NS3 helicase domain. The variant DNA fragment was cloned in the pET21b bacterial expression vector (Novagen) and the NS3/4A complex was expressed in Escherichia coli strain BL21 (DE3) (Invitrogen) following the protocol described by P. Gallinari et al. (see Gallinari P, Brennan D, Nardi C, Brunetti M, Tomei L, Steinkuhler C, De Francesco R., J. Virol. 72(8):6758-69 (1998)) with modifications. Briefly, the NS3/4A protease complex expression was induced with 0.5 millimolar (mM) Isopropyl β-D-1-thiogalactopyranoside (IPTG) for 22 hours (h) at 20° C. A typical fermentation (1 Liter (L)) yielded approximately 10 grams (g) of wet cell paste. The cells were resuspended in lysis buffer (10 mL/g) consisting of 25 mM N-(2-Hydroxyethyl)piperazine-N′-(2-Ethane Sulfonic acid) (HEPES), pH 7.5, 20% glycerol, 500 mM Sodium Chloride (NaCl), 0.5% Triton X-100, 1 microgram/milliliter (“μg/mL”) lysozyme, 5 mM Magnesium Chloride (MgCl2), 1 μg/mL DnaseI, 5 mM β-Mercaptoethanol (βME), Protease inhibitor—Ethylenediamine Tetraacetic acid (EDTA) free (Roche), homogenized and incubated for 20 minutes (min) at 4° C. The homogenate was sonicated and clarified by ultra-centrifugation at 235000 g for 1 h at 4° C. Imidazole was added to the supernatant to a final concentration of 15 mM and the pH adjusted to 8.0. The crude protein extract was loaded on a Nickel—Nitrilotriacetic acid (Ni-NTA) column pre-equilibrated with buffer B (25 mM HEPES, pH 8.0, 20% glycerol, 500 mM NaCl, 0.5% Triton X-100, 15 mM imidazole, 5 mM βME). The sample was loaded at a flow rate of 1 mL/min. The column was washed with 15 column volumes of buffer C (same as buffer B except with 0.2% Triton X-100). […]

[2] = test system: HCV replicon in HUH-7 cells; experiment: HCV replicon FRET assay; type: cell-based, Hepatitis C virus (strain 1b); settings: Hepatitis C virus
Description: Generation of HCV Replicon
An HCV replicon whole cell system was established as described by Lohmann V, Korner F, Koch J, Herian U, Theilmann L, Bartenschlager R., Science 285(5424):110-3 (1999). This system enabled us to evaluate the effects of our HCV Protease compounds on HCV RNA replication. Briefly, using the HCV strain 1b sequence described in the Lohmann paper (Assession number:AJ238799), an HCV cDNA was synthesized by Operon Technologies, Inc. (Alameda, Calif.), and the full-length replicon was then assembled in plasmid pGem9zf(+) (Promega, Madison, Wis.) using standard molecular biology techniques. The replicon consists of (i) the HCV 5′ UTR fused to the first 12 amino acids of the capsid protein, (ii) the neomycin phosphotransferase gene (neo), (iii) the IRES from encephalomyocarditis virus (EMCV), and (iv) HCV NS3 to NS5B genes and the HCV 3′ UTR. Plasmid DNAs were linearized with ScaI and RNA transcripts were synthesized in vitro using the T7 MegaScript transcription kit (Ambion, Austin, Tex.) according to manufacturer's directions. In vitro transcripts of the cDNA were transfected into the human hepatoma cell line, HUH-7. […] Resulting cell lines were characterized for positive and negative strand RNA production and protein production over time.
The HCV replicon FRET assay was developed to monitor the inhibitory effects of compounds described in the disclosure on HCV viral replication. HUH-7 cells, constitutively expressing the HCV replicon, were grown in Dulbecco's Modified Eagle Media (DMEM) (Gibco-BRL) containing 10% Fetal calf serum (FCS) (Sigma) and 1 mg/mL G418 (Gibco-BRL). Cells were seeded the night before (1.5×10^4 cells/well) in 96-well tissue-culture sterile plates. Compound and no compound controls were prepared in DMEM containing 4% FCS, 1:100 Penicillin/Streptomysin (Gibco-BRL), 1:100 L-glutamine and 5% DMSO in the dilution plate (0.5% DMSO final concentration in the assay). Compound/DMSO mixes were added to the cells and incubated for 4 days at 37° C. After 4 days, cells were first assessed for cytotoxicity using alamar Blue (Trek Diagnotstic Systems) for a CC50 reading. The toxicity of compound (CC50) was determined by adding 1/10th volume of alamar Blue to the media incubating the cells. After 4 h, the fluorescence signal from each well was read, with an excitation wavelength at 530 nm and an emission wavelength of 580 nm, using the Cytofluor Series 4000 (Perspective Biosystems). Plates were then rinsed thoroughly with Phosphate-Buffered Saline (PBS) (3 times 150 μl).

[3] = NS3/4A BMS strain, enzyme assay; read-out: IC 50 Range
[4] = HCV replicon cell assay, HUH-7, read-out: EC50 Range
[5] = read-out: IC 50 Range; NS3/4A BMS strain, enzyme assay

| SMILES | IC50 [1, 3] [µM] | EC50 [2, 4] [µM] | IC50 [1, 5] [µM] | EC50 ([2]; Huh-7, read-out: EC50 Range) [µM] |
| --- | --- | --- | --- | --- |
| C=CC1CC1(NC(=O)[C@@H]1C[C@@H](NC(=O)c2cc3ccccc3s2)CN1C(=O)[C@@H](NC(=O)CC1CC1)C(C)(C)C)C(=O)NS(=O)(=O)C1CC1 (stereo partly shown) [Compound 32] | < 0.15 | 0.15 to 15 | – | – |
| C=CC1CC1(NC(=O)C1CC(NC(=O)c2cccc[n+]2[O-])CN1C(=O)C(NC(=O)CC1CC1)C(C)(C)C)C(=O)NS(=O)(=O)C1CC1 (stereo not shown) [Compound 33] | – | > 15 | 0.15 to 15 | – |
| C=CC1CC1(NC(=O)C1CC(NC(=O)c2ccc3ccccc3[n+]2[O-])CN1C(=O)C(NC(=O)CC1CC1)C(C)(C)C)C(=O)NS(=O)(=O)C1CC1 (stereo not shown) [Compound 34] | – | 0.15 to 15 | < 0.15 | – |
| C=CC1CC1(NC(=O)[C@@H]1C[C@@H](NC(=O)c2ccccc2OC)CN1C(=O)[C@@H](NC(=O)CC1CC1)C(C)(C)C)C(=O)NS(=O)(=O)C1CC1 (stereo partly shown) [Compound 35] | – | > 15 | 0.15 to 15 | – |
| C=CC1CC1(NC(=O)[C@@H]1C[C@@H](NC(=O)c2c(OCC)ccc3ccccc23)CN1C(=O)[C@@H](NC(=O)CC1CC1)C(C)(C)C)C(=O)NS(=O)(=O)C1CC1 (stereo partly shown) [Compound 37] | 0.15 to 15 | > 15 | – | – |
| C=CC1CC1(NC(=O)[C@@H]1C[C@@H](NC(=O)c2ccccc2-c2ccccc2)CN1C(=O)[C@@H](NC(=O)CC1CC1)C(C)(C)C)C(=O)NS(=O)(=O)C1CC1 (stereo partly shown) [Compound 38] | 0.15 to 15 | > 15 | – | – |
| C=CC1CC1(NC(=O)[C@@H]1C[C@@H](NC(=O)c2coc3ccccc3c2=O)CN1C(=O)[C@@H](NC(=O)CC1CC1)C(C)(C)C)C(=O)NS(=O)(=O)C1CC1 (stereo partly shown) [Compound 39] | < 0.15 | 0.15 to 15 | – | – |
| C=CC1CC1(NC(=O)[C@@H]1C[C@@H](NC(=O)c2cn(CC)c3cc4c(cc3c2=O)OCO4)CN1C(=O)[C@@H](NC(=O)CC1CC1)C(C)(C)C)C(=O)NS(=O)(=O)C1CC1 (stereo partly shown) [Compound 40] | – | > 15 | < 0.15 | – |
| C=CC1CC1(NC(=O)[C@@H]1C[C@@H](NC(=O)c2ccc3cnccc3n2)CN1C(=O)[C@@H](NC(=O)CC1CC1)C(C)(C)C)C(=O)NS(=O)(=O)C1CC1 (stereo partly shown) [Compound 41] | < 0.15 | > 15 | – | – |
| C=CC1CC1(NC(=O)[C@@H]1C[C@@H](NC(=O)Nc2cccc3ccccc23)CN1C(=O)[C@@H](NC(=O)OC(C)(C)C)C(C)(C)C)C(=O)NS(=O)(=O)C1CC1 (stereo partly shown) [Compound 43] | – | > 15 | < 0.15 | – |
| C=CC1CC1(NC(=O)[C@@H]1C[C@@H](NC(=O)NCc2ccccc2)CN1C(=O)[C@@H](NC(=O)OC(C)(C)C)C(C)(C)C)C(=O)NS(=O)(=O)C1CC1 (stereo partly shown) [Compound 44] | 0.15 to 15 | > 15 | – | – |
| C=CC1CC1(NC(=O)[C@@H]1C[C@@H](NC(=S)NCc2ccccc2)CN1C(=O)[C@@H](NC(=O)OC(C)(C)C)C(C)(C)C)C(=O)NS(=O)(=O)C1CC1 (stereo partly shown) [Compound 45] | – | > 15 | 0.15 to 15 | – |
| C=CC1CC1(NC(=O)[C@@H]1C[C@@H](NCc2ccnc3ccccc23)CN1C(=O)[C@@H](NC(=O)OC(C)(C)C)C(C)(C)C)C(=O)NS(=O)(=O)C1CC1 (stereo partly shown) [Compound 47] | < 0.15 | > 15 | – | – |
| C=CC1CC1(NC(=O)[C@@H]1C[C@@H](NS(=O)(=O)c2cccc3ccccc23)CN1C(=O)[C@@H](NC(=O)OC(C)(C)C)C(C)(C)C)C(=O)NS(=O)(=O)C1CC1 (stereo partly shown) [Compound 48] | 0.15 to 15 | > 15 | – | – |
| C=CC1CC1(NC(=O)[C@@H]1C[C@@H](NS(=O)(=O)c2cccc3c(N(C)C)cccc23)CN1C(=O)[C@@H](NC(=O)OC(C)(C)C)C(C)(C)C)C(=O)NS(=O)(=O)C1CC1 (stereo partly shown) [Compound 49] | 0.15 to 15 | > 15 | – | – |
| C=CC1CC1(NC(=O)[C@@H]1C[C@@H](NC(=O)n2ccc3cccnc32)CN1C(=O)[C@@H](NC(=O)CC1CC1)C(C)(C)C)C(=O)NS(=O)(=O)C1CC1 (stereo partly shown) [Compound 50] | < 0.15 | 0.15 to 15 | – | – |
| C=CC1CC1(NC(=O)[C@@H]1C[C@@H](NC(=O)n2ccc3ccccc32)CN1C(=O)[C@@H](NC(=O)CC1CC1)C(C)(C)C)C(=O)NS(=O)(=O)C1CC1 (stereo partly shown) [Compound 51] | – | – | < 0.15 | 0.15 to 15 |
| C=CC1CC1(NC(=O)[C@@H]1C[C@@H](NC(=O)OC2=NCc3ccccc32)CN1C(=O)[C@@H](NC(=O)CC1CC1)C(C)(C)C)C(=O)NS(=O)(=O)C1CC1 (stereo partly shown) [Compound 52] | – | 0.15 to 15 | < 0.15 | – |
| C=CC1CC1(NC(=O)[C@@H]1C[C@@H](NC(=O)n2c(=O)oc3ccccc32)CN1C(=O)[C@@H](NC(=O)CC1CC1)C(C)(C)C)C(=O)NS(=O)(=O)C1CC1 (stereo partly shown) [Compound 53] | – | > 15 | < 0.15 | – |
| C=CC1CC1(NC(=O)[C@@H]1C[C@@H](N2C(=O)c3ccccc3C2=O)CN1C(=O)[C@@H](NC(=O)CC1CC1)C(C)(C)C)C(=O)NS(=O)(=O)C1CC1 (stereo partly shown) [Compound 58] | – | > 15 | 0.15 to 15 | – |
